Like-named read-outs stand apart in the source and are kept apart here. Each block holds one compound with its values, some of them ahead of it.
Assays:
[1] = undergoes hydrolytic degradation; cited from earlier work
[2] = format: physicochemical
Experimental: Analytical HPLC Method Used for Measuring Guadecitabine Purity
Column: 150×3.0 mm Luna Omega Polar C18, 1.6 μm at 40° C.
Solvent A: 0.15 mL/l formic acid in water, pH adjusted with ammonia to 3.6. Solvent B: acetonitrile Gradient program: […]
Example 23: Comparison of Guadecitabine Sodium Form A Stability in Water at 25° C. and Methanol Water (9/1 v/v) at 40° C.
In water stability of guadecitabine sodium form A was measured as follows.
Instrument method: autosampler temp. was set to 25° C. 10 mg of guadecitabine sodium form A was weighted in 2-mL vial in glovebox and 1 mL of water was added to have concentration exactly 10 mg/mL. Sample was injected freshly after preparation (0 min), 20 min after preparation (20 min) and afterwards every 40 min (duration of single analysis run).

[3] = Stability of guadecitabine sodium form A in methanol water (9/1 v/v) at 40° C. (HPLC contents); format: physicochemical
Experimental: Analytical HPLC Method Used for Measuring Guadecitabine Purity Column: 150×3.0 mm Luna Omega Polar C18, 1.6 μm at 40° C. Solvent A: 0.15 mL/l formic acid in water, pH adjusted with ammonia to 3.6. Solvent B: acetonitrile Gradient program: [table] [table] Example 23: Comparison of Guadecitabine Sodium Form A Stability in Water at 25° C. and Methanol Water (9/1 v/v) at 40° C.

[4] = Stability in aqueous media (statements in the description); format: physicochemical; details: aqueous phase of chromatography on C18 column

SMILES: Nc1ncn([C@H]2C[C@H](O)[C@@H](CO)O2)c(=O)n1 [Decitabine]
- stability in aqueous media [1]: unstable

- HPLC contents (%) Degradant 2a [2]: <0.05%
- HPLC contents (%) Degradant 2b [2]: <0.05%
- HPLC contents (%) Degradant 2c [2]: 0.14%
- HPLC contents (%) Degradant 2d [2]: 0.05%
- HPLC contents (%) guadecitabine sodium ([2]; Solution in DMSO, no time point (reference)): 99.82%
- HPLC contents (%) guadecitabine sodium ([2]; Solution in water, 10 mg/mL, 25° C., injection time point 0 min): 99.80%
- HPLC contents (%) guadecitabine sodium ([2]; Solution in water, 10 mg/mL, 25° C., injection time point 20 min): 99.63%
- HPLC contents (%) guadecitabine sodium ([2]; Solution in water, 10 mg/mL, 25° C., injection time point 40 min): 99.39%
- HPLC contents (%) guadecitabine sodium ([2]; Solution in water, 10 mg/mL, 25° C., injection time point 80 min): 99.02%
- HPLC contents (%) guadecitabine sodium ([2]; Solution in water, 10 mg/mL, 25° C., injection time point 120 min): 98.58%
- HPLC contents (%) guadecitabine sodium ([2]; Solution in water, 10 mg/mL, 25° C., injection time point 160 min): 98.16%
- HPLC contents (%) guadecitabine sodium ([2]; Solution in water, 10 mg/mL, 25° C., injection time point 200 min): 97.56%
- HPLC contents (%) guadecitabine sodium ([2]; Solution in water, 10 mg/mL, 25° C., injection time point 240 min): 97.11%
- HPLC contents (%) guadecitabine sodium ([2]; Solution in water, 10 mg/mL, 25° C., injection time point 280 min): 96.29%
- HPLC contents (%) Degradant 2a [3]: <0.05%
- HPLC contents (%) Degradant 2b [3]: <0.05%
- HPLC contents (%) Degradant 2c [3]: 0.14%
- HPLC contents (%) Degradant 2d [3]: 0.10%
- HPLC contents (%) guadecitabine sodium ([3]; Suspension in methanol/water (9/1), 40° C., injection time point 240 min): 99.76%
SMILES: Nc1ncn([C@H]2C[C@H](OP(=O)([O-])OC[C@H]3O[C@@H](n4cnc5c(=O)[nH]c(N)nc54)C[C@@H]3O)[C@@H](CO)O2)c(=O)n1.[Na+] [guadecitabine sodium]

- stability in aqueous phase [4]: not stable
- guadecitabine degradation ([3]; in methanol): significantly suppressed
SMILES: Nc1ncn([C@H]2C[C@H](OP(=O)(O)OC[C@H]3O[C@@H](n4cnc5c(=O)[nH]c(N)nc54)C[C@@H]3O)[C@@H](CO)O2)c(=O)n1 [guadecitabine, [(2R,3S,5R)-5-(2-amino-6-oxo-3H-purin-9-yl)-3-hydroxyoxolan-2-yl]methyl [(2R,3S,5R)-5-(4-amino-2-oxo-1,3,5-triazin-1-yl)-2-(hydroxymethyl)oxolan-3-yl] hydrogen phosphate]
